The values that follow come from patent US10519152B2, “Compounds and their use in treating cancer” (AstraZeneca AB, priority 2017, dated 2019).

Counter-ions that a name gives are not always drawn.

The experiment concerns the target T1, Estrogen Receptor (ERα) in MCF-7 human ductal carcinoma breast cell line (Homo sapiens, UniProt P03372).
T1 construct: endogenous in cells; host or cells: MCF-7
T1 sequence (P03372 1-595): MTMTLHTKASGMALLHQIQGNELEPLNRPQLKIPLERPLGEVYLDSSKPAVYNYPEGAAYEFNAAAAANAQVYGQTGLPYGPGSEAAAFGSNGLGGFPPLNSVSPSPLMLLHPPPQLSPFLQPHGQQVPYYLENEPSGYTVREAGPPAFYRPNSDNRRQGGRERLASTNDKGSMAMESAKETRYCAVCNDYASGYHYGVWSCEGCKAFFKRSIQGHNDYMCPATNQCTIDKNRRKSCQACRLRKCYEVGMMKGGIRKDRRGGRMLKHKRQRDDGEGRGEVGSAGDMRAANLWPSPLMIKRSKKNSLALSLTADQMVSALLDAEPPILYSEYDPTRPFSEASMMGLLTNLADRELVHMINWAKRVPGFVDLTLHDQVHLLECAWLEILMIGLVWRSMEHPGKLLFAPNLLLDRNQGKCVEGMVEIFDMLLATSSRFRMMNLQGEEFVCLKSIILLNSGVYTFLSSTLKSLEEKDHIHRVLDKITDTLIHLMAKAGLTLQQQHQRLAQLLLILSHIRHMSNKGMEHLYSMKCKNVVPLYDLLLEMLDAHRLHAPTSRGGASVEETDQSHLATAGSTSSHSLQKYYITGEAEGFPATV
As to the kind of experiment: MCF-7 ER degradation assay (cell based immuno-fluorescence). To be noted: MCF-7 cells; for ER degradation ≥ 90% at 0.3 μM: ER degradation by fulvestrant at 0.3 μM is defined as 100%; for DC50: 18-22 hours incubation, 50% reduction of ERα expression, single experiment or average of two or more, read-out: MCF-7 ER degradation IC50. In outline:
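MCF-7 human ductal carcinoma breast cells were seeded at 3.75×10^4 cells per mL (40 μL per well) in 384 well plates with phenol red free DMEM containing 2 mM L-Glutamine and 5% (v/v) Charcoal/Dextran treated foetal calf serum. After overnight culture, compounds were acoustically dispensed, incubated 18-22 hours, then cells were formaldehyde-fixed and immunostained for ERα.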

`Cc1ncsc1-c1ccc(CNC(=O)[C@@H]2C[C@@H](O)CN2C(=O)[C@@H](NC(=O)COCCOCCOCCCNC(=O)c2cc(F)c([C@@H]3c4[nH]c5ccccc5c4C[C@@H](C)N3CC(C)(C)F)c(F)c2)C(C)(C)C)cc1` [Example 84, (2S,4R)-1-((S)-16-(tert-Butyl)-1-(3,5-difluoro-4-((1R,3R)-2-(2-fluoro-2-methylpropyl)-3-methyl-2,3,4,9-tetrahydro-1H-pyrido[3,4-b]indol-1-yl)phenyl)-1,14-dioxo-6,9,12-trioxa-2,15-diazaheptadecan-17-oyl)-4-hydroxy-N-(4-(4-methylthiazol-5-yl)benzyl)pyrrolidine-2-carboxamide]: the “ER degradation ≥ 90% at 0.3 μM” value is recorded as “••” and the DC50 amounted to 0.7 nM.

In the case of `Cc1ncsc1-c1ccc(CNC(=O)[C@@H]2C[C@@H](O)CN2C(=O)[C@@H](NC(=O)COCc2ccc(COc3cc(F)c([C@@H]4c5[nH]c6ccccc6c5C[C@@H](C)N4CC(C)(C)F)c(F)c3)nc2)C(C)(C)C)cc1` [Example 85, (2S,4R)-1-((S)-2-(2-((6-((3,5-difluoro-4-((1R,3R)-2-(2-fluoro-2-methylpropyl)-3-methyl-2,3,4,9-tetrahydro-1H-pyrido[3,4-b]indol-1-yl)phenoxy)methyl)pyridin-3-yl)methoxy)acetamido)-3,3-dimethylbutanoyl)-4-hydroxy-N-(4-(4-methylthiazol-5-yl)benzyl)pyrrolidine-2-carboxamide], the “ER degradation ≥ 90% at 0.3 μM” value is “••” and the DC50 worked out at 0.6 nM.

For `Cc1ncsc1-c1ccc(CNC(=O)[C@@H]2C[C@@H](O)CN2C(=O)[C@@H](NC(=O)COCc2ccc(COc3cc(F)c([C@@H]4c5[nH]c6ccccc6c5C[C@@H](C)N4CC(C)(C)F)c(F)c3)cn2)C(C)(C)C)cc1` [Example 86, (2S,4R)-1-((S)-2-(2-((5-((3,5-Difluoro-4-((1R,3R)-2-(2-fluoro-2-methylpropyl)-3-methyl-2,3,4,9-tetrahydro-1H-pyrido[3,4-b]indol-1-yl)phenoxy)methyl)pyridin-2-yl)methoxy)acetamido)-3,3-dimethylbutanoyl)-4-hydroxy-N-(4-(4-methylthiazol-5-yl)benzyl)pyrrolidine-2-carboxamide], the “ER degradation ≥ 90% at 0.3 μM” value is “••” and the DC50 worked out at 0.6 nM.

Regarding `Cc1ncsc1-c1ccc(CNC(=O)[C@@H]2C[C@@H](O)CN2C(=O)[C@@H](NC(=O)COCCOCCOCCNC(=O)c2cc(F)c([C@@H]3c4[nH]c5ccccc5c4C[C@@H](C)N3CC(C)(C)F)c(F)c2)C(C)(C)C)cc1` [Example 91, (2S,4R)-1-((S)-15-(tert-Butyl)-1-(3,5-difluoro-4-((1R,3R)-2-(2-fluoro-2-methylpropyl)-3-methyl-2,3,4,9-tetrahydro-1H-pyrido[3,4-b]indol-1-yl)phenyl)-1,13-dioxo-5,8,11-trioxa-2,14-diazahexadecan-16-oyl)-4-hydroxy-N-(4-(4-methylthiazol-5-yl)benzyl)pyrrolidine-2-carboxamide], the “ER degradation ≥ 90% at 0.3 μM” value is “••” and the DC50 came to 0.3 nM.

On to `Cc1ncsc1-c1ccc(CNC(=O)[C@@H]2C[C@@H](O)CN2C(=O)[C@@H](NC(=O)COCCCCOCCCOc2cc(F)c([C@@H]3c4[nH]c5ccccc5c4C[C@@H](C)N3CC(C)(C)F)c(F)c2)C(C)(C)C)cc1` [Example 93], for which the “ER degradation ≥ 90% at 0.3 μM” value is on record as “•” and the DC50 worked out at 0.9 nM.

Consider `Cc1ncsc1-c1ccc(CNC(=O)[C@@H]2C[C@@H](O)CN2C(=O)[C@@H](NC(=O)COCCCOCCOc2cc(F)c([C@@H]3c4[nH]c5ccccc5c4C[C@@H](C)N3CC(F)(F)F)c(F)c2)C(C)(C)C)cc1` [Example 94, (2S,4R)-1-((S)-2-(2-(3-(2-(3,5-Difluoro-4-((1R,3R)-3-methyl-2-(2,2,2-trifluoroethyl)-2,3,4,9-tetrahydro-1H-pyrido[3,4-b]indol-1-yl)phenoxy)ethoxy)propoxy)acetamido)-3,3-dimethylbutanoyl)-4-hydroxy-N-(4-(4-methylthiazol-5-yl)benzyl)pyrrolidine-2-carboxamide], for which the “ER degradation ≥ 90% at 0.3 μM” value is recorded as “•” and the DC50 was 0.6 nM.

With `Cc1ncsc1-c1ccc(CNC(=O)[C@@H]2C[C@@H](O)CN2C(=O)[C@@H](NC(=O)COCCOCCOCCOc2cc(F)c([C@@H]3c4[nH]c5ccccc5c4C[C@@H](C)N3CC(F)(F)F)c(F)c2)C(C)(C)C)cc1` [Example 95, (2S,4R)-1-((S)-2-(tert-Butyl)-14-(3,5-difluoro-4-((1R,3R)-3-methyl-2-(2,2,2-trifluoroethyl)-2,3,4,9-tetrahydro-1H-pyrido[3,4-b]indol-1-yl)phenoxy)-4-oxo-6,9,12-trioxa-3-azatetradecanoyl)-4-hydroxy-N-(4-(4-methylthiazol-5-yl)benzyl)pyrrolidine-2-carboxamide], the “ER degradation ≥ 90% at 0.3 μM” value is on record as “••” and the DC50 worked out at 0.4 nM.

Regarding `Cc1ncsc1-c1ccc(CNC(=O)[C@@H]2C[C@@H](O)CN2C(=O)[C@@H](NC(=O)COCCCCCOc2cc(F)c([C@@H]3c4[nH]c5ccccc5c4C[C@@H](C)N3CC(F)(F)F)c(F)c2)C(C)(C)C)cc1` [Example 96], the “ER degradation ≥ 90% at 0.3 μM” value is listed as “•” and the DC50 was 1.3 nM.

For the compound `Cc1ncsc1-c1ccc(CNC(=O)[C@@H]2C[C@@H](O)CN2C(=O)[C@@H](NC(=O)COCCOCCCCCOc2cc(F)c([C@@H]3c4[nH]c5ccccc5c4C[C@@H](C)N3CC(C)(C)F)c(F)c2)C(C)(C)C)cc1` [Example 97, (2S,4R)-1-((S)-2-(2-(2-((5-(3,5-Difluoro-4-((1R,3R)-2-(2-fluoro-2-methylpropyl)-3-methyl-2,3,4,9-tetrahydro-1H-pyrido[3,4-b]indol-1-yl)phenoxy)pentyl)oxy)ethoxy)acetamido)-3,3-dimethylbutanoyl)-4-hydroxy-N-(4-(4-methylthiazol-5-yl)benzyl)pyrrolidine-2-carboxamide], the “ER degradation ≥ 90% at 0.3 μM” value is on record as “••” and the DC50 was 0.8 nM.

For the compound `CC[C@H](C)[C@H](N)C(=O)O[C@@H]1C[C@@H](C(=O)NCc2ccc(-c3scnc3C)cc2)N(C(=O)[C@@H](NC(=O)COCCOCCOCCOc2cc(F)c([C@@H]3c4[nH]c5ccccc5c4C[C@@H](C)N3CC(C)(C)F)c(F)c2)C(C)(C)C)C1` [Example 99, (3R,5S)-1-((S)-2-(2-(2-(2-(2-(3,5-Difluoro-4-((1R,3R)-2-(2-fluoro-2-methylpropyl)-3-methyl-2,3,4,9-tetrahydro-1H-pyrido[3,4-b]indol-1-yl)phenoxy)ethoxy)ethoxy)ethoxy)acetamido)-3,3-dimethylbutanoyl)-5-((4-(4-methylthiazol-5-yl)benzyl)carbamoyl)pyrrolidin-3-yl L-isoleucinate Formate], the “ER degradation ≥ 90% at 0.3 μM” value was “•” and the DC50 was 1.6 nM.

With `Cc1ncsc1-c1ccc(CNC(=O)[C@@H]2C[C@@H](OC(=O)[C@H](C)NC(=O)[C@@H](N)C(C)C)CN2C(=O)[C@@H](NC(=O)COCCOCCOCCOc2cc(F)c([C@@H]3c4[nH]c5ccccc5c4C[C@@H](C)N3CC(C)(C)F)c(F)c2)C(C)(C)C)cc1` [Example 100, (3R,5S)-1-((S)-2-(2-(2-(2-(2-(3,5-Difluoro-4-((1R,3R)-2-(2-fluoro-2-methylpropyl)-3-methyl-2,3,4,9-tetrahydro-1H-pyrido[3,4-b]indol-1-yl)phenoxy)ethoxy)ethoxy)ethoxy)acetamido)-3,3-dimethylbutanoyl)-5-((4-(4-methylthiazol-5-yl)benzyl)carbamoyl)pyrrolidin-3-yl L-valyl-L-alaninate Formate], the “ER degradation ≥ 90% at 0.3 μM” value is “••” and the DC50 came to 0.4 nM.
